Marks after values point to notes of the source that are not given here.
Columns and labels:
Type in all cases: in vivo, mouse
C57BL/6 mice = assay: Hepatic steatosis and organ mass in oral PN diet fed C57BL/6 mice, subsequent experiment at two dosages (H&E); conditions: 19 days
Description: Male C57BL/6 mice, 6 to 8 weeks old at initiation of the experiments, were used for all experimental groups. Mice were fed either an ad libitum diet of standard rodent chow (calorie composition: 26% protein, 14% fat, 60% carbohydrates) and water or a parenteral nutrition (PN) solution that mimics the PN diet used in neonatal intensive care units. The PN solution was a fat-free, high-carbohydrate liquid diet (20% dextrose, 2% essential and nonessential amino acids, 0.2% pediatric trace elements, 0.5% pediatric multivitamins, 30 mEq of sodium, 20 mEq of potassium, 15 mEq of calcium (as calcium gluconate), 10 mEq of magnesium, 10 mEq of phosphate, 5 mEq of acetate, and 30 mEq of chloride per liter) administered as a single 50 mL bottle per cage which mice consumed ad libitum. […] Prince et al., JPEN J Parenter Enteral Nutr., 2014; 38(5): 608-616.
In a subsequent experiment, both Compound A and Compound B were tested at two dosages. The results of this experiment are described in Example 15.
Male C57BL/6 mice, 6 to 8 weeks old at initiation of the experiments, were used for all experimental groups. One group was fed an ad libitum diet of standard rodent chow and water. The group fed standard rodent chow received no additional treatments during the experimental period and served as a negative control group. Seven other groups (10 mice per group) were fed the PN solution described above ad libitum.
Of the seven groups that received the PN diet, each group received one of the following orogastric protocols administered every other day over 19 days: • (1) Saline: saline solution administered isovolumetric with the Omegaven® group; • (2) MCT: medium-chain triglyceride oil (MCT) (Nestle™ HealthCare Nutrition, Florham Park, NJ), at a dose of 7.4 g of fat/kg body weight; • (3) Omegaven®: Omegaven® (commercial fish oil lipid emulsion) at a dose of 2.4 g fat/kg body weight; • (4) Compound A LOW: Compound A at a dose of 0.3 mmol/kg bw day (diluted in MCT to 0.0375 mmol/mL, resulting in administration of 7.4 g of MCT/kg weight); • (5) Compound A HI: Compound A at a dose of 0.6 mmol/kg bw day (diluted in MCT to 0.075 mmol/mL, resulting in administration of 7.4 g of MCT/kg weight); • (6) Compound B LOW: Compound B at a dose of 0.3 mmol/kg bw day (diluted in MCT to 0.0375 mmol/mL, resulting in administration of 7.4 g of MCT/kg weight); and • (7) Compound B HI: Compound B at a dose of 0.6 mmol/kg bw day (diluted in MCT to 0.075 mmol/mL, resulting in administration of 7.4 g of MCT/kg weight).
After 19 days of treatment, organs were harvested, including the liver, kidney, and spleen, which were analyzed for relative weight between each group. Livers were also fixed and frozen on dry ice, then stored at −80° C. for hematoxylin and eosin (H&E) stain analysis and Oil Red O analysis.

[1] = Relative bodyweight in ob/ob AMLN mice; conditions: 0.3 mmol/kg bw day, 4 weeks treatment, FIG. 11
Method: (§1) ob/ob mice are consistently fibrosis (liver) prone when cholesterol (2%) and 40% fat (containing 18% trans-fatty acids) and 20% fructose are added to a high-caloric diet (i.e., AMLN diet). ob/ob mice on AMLN diet (termed ‘ob/ob AMLN mice’) develop steatohepatitis and fibrosis within a shorter timeframe (<12 weeks) compared with wild-type C57BL/6 mice (AMLN mice) fed the same diet. ob/ob AMLN mice provide an obese diet-induced model of NASH that also allows the study of effects on glycemic control.
(§2) Thirty male ob/ob mice (5 weeks old) were fed the AMLN diet for 15 weeks then randomised into 3 groups of 10 mice/group to receive Compound B or Compound A (both at 0.3 mmol/kg bw day) or no treatment (vehicle) for a further 4 weeks. Assessment of the hepatic expression of key genes regulating plasma lipid concentrations (LDLr), hepatic fibrosis (collA1), bile acid transport/re-uptake (Slc51b and Slc10a2) and inflammation (CD68) was made via RNA sequencing at 4 weeks. To assess the effects of Compound B and Compound A on glycemic control, an oral glucose tolerance test (OGTT) was also performed at 3 weeks. An additional group of mice (n=5) were also treated with a PPAR-γ agonist (pioglitazone, 30 mg/kg bw day) was also included to compare effects upon bodyweight.

[2] = system: hepatic expression of key genes; assay: Hepatic target gene expression via RNA sequencing in ob/ob AMLN mice; conditions: 0.3 mmol/kg bw day, 4 weeks treatment
Method: as §1, §2

ob/ob AMLN mice = assay: Glycemic control (oral glucose tolerance test, fasting glucose and insulin) in ob/ob AMLN mice; conditions: 0.3 mmol/kg bw day
Method: as §1
as §2, with “To assess the effects of Compound B and Compound A on glycemic control, an oral glucose tolerance test (OGTT) was also performed at 3 weeks.” left out

APOE*3Leiden mice = assay: Plasma lipids in high-fat diet fed APOE*3Leiden mice; conditions: for triglyceride levels over 4 weeks: further study with reference compounds, 0.3 mmol/kg bw/day, FIG. 31
Method: The APOE*3Leiden mouse expresses a variant of the human apolipoprotein E3 (APOE3), the APOE*3Leiden, in addition to the human apolipoprotein C1 (APOC1).
Studies were performed in APOE*3Leiden mice (13-15 weeks old) placed on a semi-synthetic high fat diet (24% fat w/w) with 0.25% cholesterol w/w. After a 4-week run-in period, mice were sub-divided into groups of 5 mice each and administration of Compound A, Compound B, or vehicle alone was started. Both Compound B and Compound A were administered at a dose of 0.3 mmol/kg bw/day via diet. Sunflower oil (10 ml v/w) was used as a vehicle to facilitate mixing. After 4 weeks of treatment mice were sacrificed by C02 asphyxiation and plasma cholesterol and triglycerides were measured using commercially available kits (Roche*/Hitachi©).
In a further study, performed as described above, the effects of Compound A, Compound B, and Compound C were compared with the effects of Reference Compound 1 ((Z)-3-(pent-2-en-1-yloxy)benzoic acid) and Reference Compound 2 ((Z)-4-(pent-2-en-1-yloxy)benzoic acid) on triglyceride levels. […] The results of this study are described in Example 17.

[3] = oral PN diet, high and low dosages, FIG. 18
[4] = high-fat high-cholesterol diet, 4 weeks treatment
[5] = high-fat high-cholesterol diet, 4 weeks treatment, dose 0.1 mmol/kg bw/day
[6] = high-fat high-cholesterol diet, 4 weeks treatment, dose 0.3 mmol/kg bw/day

SMILES | development of steatosis induced by an oral PN diet (H&E stain in isolated liver sections) (C57BL/6 mice; 0.3 and 0.6 mmol/kg bw day in MCT by orogastric gavage, FIGS. 14-17) | body mass vs chow-fed or PN-fed saline groups (C57BL/6 mice; [3]) | liver/body mass vs chow-fed or PN-fed saline groups (C57BL/6 mice; [3]) | spleen/body mass vs chow-fed or PN-fed saline groups (C57BL/6 mice; [3]) | relative bodyweight versus vehicle [1] | hepatic expression of Coll al (collagen1a1) versus vehicle ([2]; FIG. 5) | expression of hepatic LDLr versus vehicle ([2]; FIG. 12) | total plasma glucose (area-under-the-curve from 0-240 mins) versus vehicle in response to an oral glucose load (ob/ob AMLN mice; after 3 weeks treatment, FIG. 1) | plasma glucose at 30- and 60-mins versus vehicle in response to an oral glucose load (ob/ob AMLN mice; after 3 weeks treatment, FIG. 2) | fasting plasma insulin versus vehicle (ob/ob AMLN mice; after 4 weeks treatment, FIG. 3) | fasting plasma glucose versus vehicle (ob/ob AMLN mice; after 4 weeks treatment, FIG. 4) | plasma TG versus vehicle (APOE*3Leiden mice; [4]) | total plasma cholesterol versus vehicle (APOE*3Leiden mice; [4]) | Reduction in plasma TG vs control (%) (APOE*3Leiden mice; [5]) | Reduction in plasma cholesterol vs control (%) (APOE*3Leiden mice; [5]) | Reduction in plasma TG vs control (%) (APOE*3Leiden mice; [6]) | Reduction in plasma cholesterol vs control (%) (APOE*3Leiden mice; [6]) | triglyceride levels over 4 weeks (APOE*3Leiden mice)
CC/C=C\COc1cccc(C(=O)O)c1C [Compound B, (Z)-2-methyl-3-(pent-2-en-1-yloxy)benzoic acid] | prevented the development of steatosis | not significantly different | not significantly different | not significantly different | no effect | significantly reduce | significantly increase | significantly reduce | significantly reduce | reduce | significantly reduce | significantly reduce | significantly reduce | 45** % | 24** % | 63** % | 27** % | 
CC/C=C\COc1cccc(C(=O)O)c1 [Reference Compound 1, (Z)-3-(pent-2-en-1-yloxy)benzoic acid, reference compound] |  |  |  |  |  |  |  |  |  |  |  |  |  |  |  |  |  | did affect
CC/C=C\COc1ccc(C(=O)O)cc1 [Reference Compound 2, (Z)-4-(pent-2-en-1-yloxy)benzoic acid, reference compound] |  |  |  |  |  |  |  |  |  |  |  |  |  |  |  |  |  | did affect
